Assay [1] deals with WDR5 protein (Homo sapiens (Human), UniProt P61964). The experiment in a line: Surface Plasmon Resonance (SPR) assay. It counts as binding. Particulars: for residence time: τ=1/koff, read-out: Residence Time (t, min).
Description: Exemplary compounds of the application were dissolved in 100% DMSO at 10 mM, assayed fresh, and then stored at −20° C. for repeat studies and other experiments. Full length WDR5 with an N-terminal His tag and C-terminal AviTag (Avidity Inc.) was expressed in E. coli with coexpression of BirA to biotin label the protein in vivo. Purification was via Ni-NTA. The purified WDR5 protein has a molecular weight of 41976 Da.
SPR studies were performed using a Biacore™ T200 instrument (GE Health Sciences Inc.). Biotinylated WDR5 protein (approximately 3000RU) was stably captured to streptavidin coupled SA chips according to the manufacture's protocol (GE Health Sciences Inc.). The running buffer used was HBS-EP (20 mM Hepes pH 7.4, 150 mM NaCl, 3 mM EDTA, 0.05% P-20) plus 5% DMSO with a flow rate of 40p1/min. For SPR analysis, 5 different concentrations of each exemplary compound of the application were sprayed into 96 or 384 well plates using an HP D300 digital dispenser. […] Curve fitting and KD calculations were performed with the Biacore T200 Evaluation software (GE Health Sciences Inc).
Assay [2] deals with MLL1-WRAD2 complex (Homo sapiens (Human), UniProt P61964). The experiment in a line: MLL1-WRAD2 enzyme assay (in vitro methyl transferase assay). It is filed as biochemical. As for the experimental part: Reaction was initiated with 1 μM 3H-SAM and incubated for 1 hour at 30° C. Reaction mixture was transferred to P81 filter-paper and washed with PBS before detection.
Setting [3] is: SPR, Table 1, read-out: WDR5 binding affinity (KD).
The mark [4] stands for this setting: SPR, Table 2, read-out: WDR5 binding affinity SPR (KD).
Setting [5] is: MLL1-WRAD2 assay, read-out: In vitro MLL1 activity (IC50).

Like-named read-outs stand apart in the source and are kept apart here.

Usually Kd stands for a measure of binding affinity in units of concentration. The residence time is the mean lifetime of the complex, commonly the reciprocal of the off-rate. Broadly, the IC50 is the concentration that gives 50% inhibition.

On to `CNC(=O)c1ccc(F)c(-c2ccc(N3C[C@@H](C)N(C)[C@@H](C)C3)c(NC(=O)c3c[nH]c(=O)cc3C(F)(F)F)c2)c1` [Example 90, N-(2′-fluoro-5′-(methylcarbamoyl)-4-((3S,5R)-3,4,5-trimethylpiperazin-1-yl)-[1,1′-biphenyl]-3-yl)-6-oxo-4-(trifluoromethyl)-1,6-dihydropyridine-3-carboxamide], for which the equilibrium dissociation constant (Kd) was found to be 0.0065 µM in assay [1] (setting [3]) and 0.0064 µM in assay [1] (setting [4]). The residence time in assay [1] (SPR) came to 3 min. The IC50 in assay [2] (setting [5]) amounted to 1.09 µM.
The corresponding values for `CN1CCN(c2ccc(-c3cc(C(=O)N(C)C4CCCCC4)ccc3F)cc2NC(=O)c2c[nH]c(=O)cc2C(F)(F)F)CC1` [Example 110, N-(5′-(cyclohexyl(methyl)carbamoyl)-2′-fluoro-4-(4-methylpiperazin-1-yl)-[1,1′-biphenyl]-3-yl)-6-oxo-4-(trifluoromethyl)-1,6-dihydropyridine-3-carboxamide] are 0.0042 µM, 0.004 µM, 7.2 min and 0.607 µM.
In the same order, the values of `CN1CCN(c2ccc(-c3cc(CNC4CCC(F)(F)CC4)ccc3F)cc2NC(=O)c2c[nH]c(=O)cc2C(F)(F)F)CC1` [Example 42, N-(5′-(((4,4-difluorocyclohexyl)amino)methyl)-2′-fluoro-4-(4-methylpiperazin-1-yl)-[1,1′-biphenyl]-3-yl)-6-oxo-4-(trifluoromethyl)-1,6-dihydropyridine-3-carboxamide] are 0.005 µM, 0.005 µM, 4.43 min and 2.28 µM.
The corresponding values for `CN1CCN(c2ccc(-c3cc(CN4CCOCC4)cnc3F)cc2NC(=O)c2c[nH]c(=O)cc2C(F)(F)F)CC1` [Example 61, N-(5-(2-fluoro-5-(morpholinomethyl)pyridin-3-yl)-2-(4-methylpiperazin-1-yl)phenyl)-6-oxo-4-(trifluoromethyl)-1,6-dihydropyridine-3-carboxamide] are 0.007 µM, 0.007 µM, 2.29 min and 4.49 µM.
Consider `C[C@@H]1CN(c2ccc(-c3cc(C(=O)N(C)C4CCCCC4)ccc3F)cc2NC(=O)c2c[nH]c(=O)cc2C(F)(F)F)C[C@H](C)N1C` [Example 111, N-(5′-(cyclohexyl(methyl)carbamoyl)-2′-fluoro-4-((3S,5R)-3,4,5-trimethylpiperazin-1-yl)-[1,1′-biphenyl]-3-yl)-6-oxo-4-(trifluoromethyl)-1,6-dihydropyridine-3-carboxamide], for which the Kd in assay [1] (setting [3]) is 0.0024 µM; in assay [1] (setting [4]), 0.024 µM. Further, the residence time in assay [1] (SPR) turned out to be 34 min. For the same molecule, the IC50 in assay [2] (setting [5]) amounted to 0.203 µM.
The corresponding values for `Cc1cc(C(=O)Nc2cc(-c3cc(CN4CCOCC4)ccc3F)ccc2N2CCN(C)CC2)ccc1F` [Example 36, 4-fluoro-N-(2′-fluoro-4-(4-methylpiperazin-1-yl)-5′-(morpholinomethyl)-[1,1′-biphenyl]-3-yl)-3-methylbenzamide] are 0.004 µM, 0.004 µM, 0.12 min and above 30 µM.
On to `C[C@H]1CN(c2ccc(-c3ncccc3F)cc2NC(=O)c2c[nH]c(=O)cc2C(F)(F)F)CCN1C` [Example 96, (S)—N-(2-(3,4-dimethylpiperazin-1-yl)-5-(3-fluoropyridin-2-yl)phenyl)-6-oxo-4-(trifluoromethyl)-1,6-dihydropyridine-3-carboxamide], for which the Kd in assay [1] (setting [3]) turned out to be 0.0026 µM; in assay [1] (setting [4]), 0.003 µM. The IC50 in assay [2] (setting [5]) stood at 2.53 µM.
In the same order, the values of `CN1CCN(c2ncc(-c3cc(CN4CCOCC4)ccc3F)cc2NC(=O)c2c[nH]c(=O)cc2C(F)(F)F)CC1` [Example 84, N-(5-(2-fluoro-5-(morpholinomethyl)phenyl)-2-(4-methylpiperazin-1-yl)pyridin-3-yl)-6-oxo-4-(trifluoromethyl)-1,6-dihydropyridine-3-carboxamide] are 0.022 µM, 0.022 µM and above 30 µM.
With `CN1CCN(c2ccc(-c3cc(CN4CCOCC4)ccc3F)cc2NC(=O)c2cn(C)c(=O)cc2C(F)(F)F)CC1` [Example 13, N-(2′-fluoro-4-(4-methylpiperazin-1-yl)-5′-(morpholinomethyl)-[1,1′-biphenyl]-3-yl)-1-methyl-6-oxo-4-(trifluoromethyl)-1,6-dihydropyridine-3-carboxamide], the Kd in assay [1] (setting [3]) and in assay [1] (setting [4]) was 0.015 µM throughout. Also, the residence time in assay [1] (SPR) was 0.3 min. For the same molecule, the IC50 in assay [2] (setting [5]) was determined as 8.98 µM.
As to `CN1CCN(c2ccc(-c3cc(CN4CCOCC4)ccc3F)cc2NC(=O)c2ccc(O)cc2C(F)(F)F)CC1` [Example 44, N-(2′-fluoro-4-(4-methylpiperazin-1-yl)-5′-(morpholinomethyl)-[1,1′-biphenyl]-3-yl)-4-hydroxy-2-(trifluoromethyl)benzamide], the dissociation constant (Kd) in assay [1] (setting [3]) and in assay [1] (setting [4]) was 0.069 µM each time. The residence time in assay [1] (SPR) worked out at 0.23 min. Further, in assay [2] (setting [5]), the concentration for half-maximal inhibition (IC50) is above 30 µM.
As for `CC(C)COc1ccc(F)c(-c2ccc(N3CCN(C)CC3)c(NC(=O)c3c[nH]c(=O)cc3C(F)(F)F)c2)c1` [Example 6, N-(2′-fluoro-5′-isobutoxy-4-(4-methylpiperazin-1-yl)-[1,1′-biphenyl]-3-yl)-6-oxo-4-(trifluoromethyl)-1,6-dihydropyridine-3-carboxamide], the dissociation constant (Kd) in assay [1] (setting [3]) and in assay [1] (setting [4]) was 0.076 µM in each case. Besides, the residence time in assay [1] (SPR) stood at 0.19 min. Moreover, in assay [2] (setting [5]), the half-maximal inhibitory concentration (IC50) came to 2.51 µM.
For the molecule `CC1CN(c2ccc(-c3cc(C(=O)NC4CCCCC4)ccc3F)cc2NC(=O)c2c[nH]c(=O)cc2C(F)(F)F)CC(C)N1C` (centres unmarked) [Example 124, N-(5′-(cyclohexylcarbamoyl)-2′-fluoro-4-(3,4,5-trimethylpiperazin-1-yl)-[1,1′-biphenyl]-3-yl)-6-oxo-4-(trifluoromethyl)-1,6-dihydropyridine-3-carboxamide], the equilibrium dissociation constant (Kd) in assay [1] (setting [3]) and in assay [1] (setting [4]) was 0.0017 µM throughout. The residence time in assay [1] (SPR) turned out to be 20.6 min. Also, the 50% inhibitory concentration (IC50) in assay [2] (setting [5]) worked out at 0.293 µM.
In the case of `CN1CCN(c2ccc(-c3cc(CN4CCOCC4)ccc3F)cc2NC(=O)c2cc(O)cc(F)c2F)CC1` [Example 48, 2,3-difluoro-N-(2′-fluoro-4-(4-methylpiperazin-1-yl)-5′-(morpholinomethyl)-[1,1′-biphenyl]-3-yl)-5-hydroxybenzamide], the Kd in assay [1] (setting [3]) and in assay [1] (setting [4]) was 0.093 µM in each case. Moreover, in assay [1] (SPR), the residence time was found to be 0.61 min. Also, the IC50 in assay [2] (setting [5]) was found to be 21.3 µM.
As to `CN1CCN(c2ccc(-c3cc(CN4CCOCC4)ccc3F)c(F)c2NC(=O)c2c[nH]c(=O)cc2C(F)(F)F)CC1` [Example 99, N-(2,2′-difluoro-4-(4-methylpiperazin-1-yl)-5′-(morpholinomethyl)-[1,1′-biphenyl]-3-yl)-6-oxo-4-(trifluoromethyl)-1,6-dihydropyridine-3-carboxamide], the Kd in assay [1] (setting [3]) and in assay [1] (setting [4]) was 0.014 µM each time. The residence time in assay [1] (SPR) was found to be 2.2 min. In assay [2] (setting [5]), the IC50 is 3.98 µM.
As for `CN1CCN(c2ccc(-c3cc(CN(C)C4COC4)ccc3F)cc2NC(=O)c2c[nH]c(=O)cc2C(F)(F)F)CC1` [Example 43, N-(2′-fluoro-5′-((methyl(oxetan-3-yl)amino)methyl)-4-(4-methylpiperazin-1-yl)-[1,1′-biphenyl]-3-yl)-6-oxo-4-(trifluoromethyl)-1,6-dihydropyridine-3-carboxamide], the dissociation constant Kd in assay [1] (setting [3]) and in assay [1] (setting [4]) was 0.007 µM throughout. Also, the residence time in assay [1] (SPR) was determined as 3.64 min. Moreover, the IC50 in assay [2] (setting [5]) came to 3.25 µM.
In turn, `CN1CCN(c2ccc(-c3cc(CN4CCC(F)CC4)ccc3F)cc2NC(=O)c2c[nH]c(=O)cc2C(F)(F)F)CC1` [drawing 287] yielded a τ in assay [1] (Table 4, effect of Fluoro-substitution) of 5.44 min. In assay [1] (Table 4, effect of Fluoro-substitution, read-out: KD (SPR)), the dissociation constant Kd is 0.011 µM. The IC50 in assay [2] (Table 4, effect of Fluoro-substitution, read-out: IC50 (MLL1)) worked out at 0.592 µM.
With `C[C@@H]1CN(c2ccc(-c3cc(CN(C)C4COC4)c(F)cc3F)cc2NC(=O)c2c[nH]c(=O)cc2C(F)(F)F)C[C@H](C)N1C` [Example 113, N-(2′,4′-difluoro-5′-((methyl(oxetan-3-yl)amino)methyl)-4-((3S,5R)-3,4,5-trimethylpiperazin-1-yl)-[1,1′-biphenyl]-3-yl)-6-oxo-4-(trifluoromethyl)-1,6-dihydropyridine-3-carboxamide], the dissociation constant Kd in assay [1] (setting [3]) worked out at 0.0082 µM; in assay [1] (setting [4]), 0.008 µM. Also, the residence time in assay [1] (SPR) came to 5.5 min. Besides, the IC50 in assay [2] (setting [5]) was determined as 2.1 µM.
The corresponding values for `CN(C)Cc1ccc(F)c(-c2ccc(N3CCN(C)CC3)c(NC(=O)c3c[nH]c(=O)cc3C(F)(F)F)c2)c1` [Example 40, N-(5′-((dimethylamino)methyl)-2′-fluoro-4-(4-methylpiperazin-1-yl)-[1,1′-biphenyl]-3-yl)-6-oxo-4-(trifluoromethyl)-1,6-dihydropyridine-3-carboxamide] are 0.009 µM, 0.009 µM, 2.52 min and 6.29 µM.
As to `Cc1cc(=O)[nH]cc1C(=O)Nc1cc(-c2cc(CN3CCOCC3)ccc2F)ccc1N1CCN(C)CC1` [Example 29, N-(2′-fluoro-4-(4-methylpiperazin-1-yl)-5′-(morpholinomethyl)-[1,1′-biphenyl]-3-yl)-4-methyl-6-oxo-1,6-dihydropyridine-3-carboxamide], the dissociation constant Kd in assay [1] (setting [3]) and in assay [1] (setting [4]) was 0.262 µM each time. The residence time in assay [1] (SPR) came to 0.42 min. In assay [2] (setting [5]), the IC50 was found to be 26.7 µM.
`CN1CCN(c2ccc(-c3ccc(CNC4CCCC4)cc3F)cc2NC(=O)c2c[nH]c(=O)cc2C(F)(F)F)CC1` [Example 33, N-(4′-((cyclopentylamino)methyl)-2′-fluoro-4-(4-methylpiperazin-1-yl)-[1,1′-biphenyl]-3-yl)-6-oxo-4-(trifluoromethyl)-1,6-dihydropyridine-3-carboxamide]: the Kd in assay [1] (setting [3]) and in assay [1] (setting [4]) was 0.023 µM each time. In assay [1] (SPR), the residence time came out at 1.37 min. Also, in assay [2] (setting [5]), the half-maximal inhibitory concentration (IC50) was 8.45 µM.

The values are drawn from US11174250B2, “Substituted carboxamides as inhibitors of WDR5 protein-protein binding” (PROPELLON THERAPEUTICS INC., priority 2016, dated 2021).
